Laboratory results taken from US9468209B2, “Method for eradicating weeds with derivatives of 3-acetyl-5-sec-butyl-4-hydroxy-3-pyrrolin-2-one” (priority 2012, dated 2016).

Tests used:
Crofton weed = assay: Needle puncture pathogenic test on slightly wounded leaf of Crofton weed; assay type: in vivo; details: for Time / Average diameter of the damage spot after 24 h: salts, Crofton weed; for Time / Average diameter of the damage spot after 24 h / Time of Disease spot / Average diameter of spot after 24 h: 50 μg/mL, natural light, 25° C.; for Time of Disease spot / Average diameter of spot after 24 h / Avg. diameter of the spot after 24 h / Time of disease spot to occur: Crofton weed leaf; for Avg. diameter of the spot after 24 h / Time of disease spot to occur: analogs with formula (I) and (II)
Method: 3-acetyl-5-sec-butyl-4-hydroxy-3-pyrrolin-2-one analogs were dissolved in a small amount of methanol and diluted with water to a concentration of 5-100 μg/g. A pathogenic test was conducted by placing the toxic liquid on the slightly wounded leaf of Crofton weed with a needle. The test has shown that the pathogenic capability of 3-acetyl-5-sec-butyl-4-hydroxy-3-pyrrolin-2-one analogs with respect to Crofton weed increases with the increase of concentration. The spot diameter caused on the leaf of Crofton weed after 24 hours was 2 mm at 50 μg/g.
3-acetyl-5-sec-butyl-4-hydroxy-3-pyrrolin-2-one analogue (Table 3, compounds 10-57) was dissolved in small amount of methanol. The solution was then diluted with distilled water to a concentration of 50 μg/mL. Methanol solution with same concentration and pure distilled water were used as control of the experiment. A pathogenic test was conducted by placing the toxic liquid on the slightly wounded leaf of Crofton weed with a needle. The experiment was carried out at 25° C. under the natural light and each test was repeated 6 times. It was measure the diameter of the spot after 24 h. […] The size of the side chain also has an effect on their activity.
Fourteen salts of 3-acetyl-5-sec-butyl-4-hydroxy-3-pyrrolin-2-one analogs were dissolved in small amount of methanol and diluted with distilled water to a concentration of 50 μg/mL. Methanol/water mixture was also prepared and used as control. Needle puncture method was used for the test on the small pieces of Crofton weed. Each treatment was repeated six times or more. The test samples were kept under natural light at 25° C. for 24 hours. The diameters of damaged spot of the plant leaves were measured by vernier caliper.

[1] = system: fluorescence of chlorophyll; assay: Fluorescence of chlorophyll of treated Crofton weed leaves; assay type: biochemical; details: 50 μg/mL, strong light 12 hours
Method: (§1) Compounds 10-57 were dissolved in small amount of methanol. The solutions were then diluted with distilled water to a concentration of 50 μg/mL. A mixture of methanol and water in the same ratio as the sample solution was also prepared and used as control in the experiment. The healthy leaves of Crofton weed were washed in water for 30 minutes and then rinsed with distilled water. The clean and tissue dried leaves were placed in petri dish with the back-side of the leaves facing up. Wet filter paper was also placed in the in petri dish for moisture control. Water, methanol and chemical solutions of the analogues were applied to the back-side of each leaf. Test sample was then placed in vacuum chamber at 25° C. for 15 min followed by exposure to the strong light (400 μM m^−2 s^−1) for 12 hours. The leaf sample went through a series of test, and the Hill reaction rate, the electron transfer activity and fluorescence of chlorophyll were measured. Four leaves were used for each treatment and each test was repeated three times.

photosystem II = assay: PSII oxygen evolution / electron transfer activity of treated Crofton weed leaves; assay type: biochemical; details: 50 μg/mL, strong light 12 hours
Method: as §1

Hill reaction = Hill reaction activity of treated Crofton weed leaves; assay type: biochemical; details: 50 μg/mL, strong light 12 hours
Method: as §1

Row | Molecule | Time (Crofton weed) [h] | Average diameter of the damage spot after 24 h (Crofton weed) [mm] | Time of Disease spot (Crofton weed) [h] | Average diameter of spot after 24 h (Crofton weed) [mm] | Fv/Fm [1] | PSII Activity of oxygen evolution (photosystem II) [uMO2/mgChlh] | Activity of Hill Reaction (Hill reaction) [uMO2/mgChlh] | also measured
1 | Sodium salt of 3-acetyl-5-ethyl-4-hydroxy-1H-pyrrol-2(5H)-one | 14.5 ± 1.8 | 3.11 ± 0.54 |  |  |  |  |  | 
2 | CC(=O)C1=C(O)C(CCC(=O)O)NC1=O (stereo not shown) [Compound 35] |  |  | 26.4 ± 0.12 | 1.27 ± 0.02 |  |  |  | 
3 | CCC1=C(O)C(C(C)CC)NC1=O (stereo not shown) [Compound 4] |  |  |  |  | 0.83 | 28.01 | 51.13 | Avg. diameter of the spot after 24 h (Crofton weed): 2.97 ± 0.01 mm; Time of disease spot to occur (Crofton weed): 18.5 ± 1.55 h
4 | Sodium salt of 3-acetyl-4-hydroxy-1H-pyrrol-2(5H)-one | 26 ± 7.30 | 1.34 ± 0.08 |  |  |  |  |  | 
5 | CCC(C)(C)C1NC(=O)C(C(C)=O)=C1O (stereo not shown) [Compound 32] |  |  | 12.5 ± 3.75 | 4.82 ± 1.44 | 0.82 | 32.13 | 63.42 | 
6 | CC(=O)C1=C(O)C(CCC(C)C)NC1=O (stereo not shown) [Compound 33] |  |  | 13.5 ± 0.75 | 4.17 ± 1.15 | 0.79 | 26.54 | 51.94 | 
7 | Magnesium (II) salt of 3-acetyl-5-ethyl-4-hydroxy-1H-pyrrol-2(5H)-one | 17.5 ± 1.50 | 2.88 ± 0.10 |  |  |  |  |  | 
8 | Sodium salt of 3-acetyl-4-hydroxy-5-(prop-1-enyl)-1H-pyrrol-2(5H)-one | 16.8 ± 1.85 | 2.42 ± 0.05 |  |  |  |  |  | 
9 | CC(=O)C1=C(O)C(CCC(N)=O)NC1=O (stereo not shown) [Compound 37] |  |  | 24 ± 0.08 | 1.64 ± 0.25 |  |  |  | 
10 | CCCCC1(CC)NC(=O)C(C(C)=O)=C1O (stereo not shown) [Compound 30] |  |  | 13.3 ± 2.00 | 4.53 ± 1.03 | 0.79 | 22.78 | 47.33 | 
11 | CCC(C)C1NC(=O)C(CCc2ccccc2)=C1O (stereo not shown) [Compound 6] |  |  |  |  | 0.81 | 27.11 | 50.04 | Avg. diameter of the spot after 24 h (Crofton weed): 2.12 ± 0.08 mm; Time of disease spot to occur (Crofton weed): 21.2 ± 3.85 h
12 | CC(=O)C1=C(O)C(CC(N)=O)NC1=O (stereo not shown) [Compound 36] |  |  | 21.9 ± 0.23 | 1.54 ± 0.07 |  |  |  | 
13 | CCCCCCCC1NC(=O)C(C(C)=O)=C1O (stereo not shown) [Compound 17] |  |  | 9.5 ± 2.36 | 7.94 ± 1.30 | 0.82 | 27.04 | 57.13 | 
14 | CC=CC1NC(=O)C(C(C)=O)=C1O (stereo not shown) [Compound 21] |  |  | 16.5 ± 1.30 | 2.89 ± 0.14 | 0.77 | 42.25 | 62.34 | 
15 | CCCCC1(C)NC(=O)C(C(C)=O)=C1O (stereo not shown) [Compound 29] |  |  | 12.1 ± 3.75 | 5.77 ± 1.15 |  |  |  | 
16 | Calcium salt of 3-acetyl-5-ethyl-4-hydroxy-1H-pyrrol-2(5H)-one [g] | 18.7 ± 3.00 | 2.29 ± 0.19 |  |  |  |  |  | 

Row | Molecule | Time (Crofton weed) [h] | Average diameter of the damage spot after 24 h (Crofton weed) [mm] | Time of Disease spot (Crofton weed) [h] | Average diameter of spot after 24 h (Crofton weed) [mm] | Fv/Fm [1] | PSII Activity of oxygen evolution (photosystem II) [uMO2/mgChlh] | Activity of Hill Reaction (Hill reaction) [uMO2/mgChlh] | also measured
17 | Zinc salt of 3-acetyl-5-ethyl-4-hydroxy-1H-pyrrol-2(5H)-one [j] | 15.1 ± 4.00 | 2.91 ± 0.02 |  |  |  |  |  | 
18 | CCCC(C#N)C1NC(=O)C(C(C)=O)=C1O (stereo not shown) [Compound 38] |  |  | 13.6 ± 0.50 | 9.82 ± 0.02 | 0.81 | 40.41 | 64.69 | 
19 | CCCC(C)C1NC(=O)C(C(C)=O)=C1O (stereo not shown) [Compound 31] |  |  | 10.8 ± 2.00 | 5.93 ± 1.35 |  |  |  | 
20 | CCC1(C)NC(=O)C(C(C)=O)=C1O (stereo not shown) [Compound 24] |  |  | 16.21 ± 3.55 | 2.43 ± 0.07 | 0.83 | 43.01 | 71.37 | 
21 | Ammonium salt of 3-acetyl-5-ethyl-4-hydroxy-1H-pyrrol-2(5H)-one | 10.3 ± 1.50 | 4.97 ± 1.01 |  |  |  |  |  | 
22 | CC(=O)C1=C(O)C(Cc2ccccc2)NC1=O (stereo not shown) [Compound 19] |  |  | 24 ± 4.00 | 1.24 ± 0.10 | 0.79 | 40.07 | 63.43 | 
23 | Sodium salt of 3-acetyl-4-hydroxy-5-methyl-1H-pyrrol-2(5H)-one [b] | 19.5 ± 0.5 | 2.21 ± 0.18 |  |  |  |  |  | 
24 | Zinc salt of 3-acetyl-4-hydroxy-5,5-dimethyl-1H-pyrrol-2(5H)-one | 18.2 ± 2.50 | 2.63 ± 0.06 |  |  |  |  |  | 
25 | Copper salt of 3-acetyl-5-ethyl-4-hydroxy-1H-pyrrol-2(5H)-one | 21.6 ± 3.05 | 1.22 ± 0.25 |  |  |  |  |  | 
26 | Sodium salt of 3-acetyl-4-hydroxy-5-propyl-1H-pyrrol-2(5H)-one | 10.2 ± 2.50 | 5.07 ± 0.11 |  |  |  |  |  | 
27 | CCC(=O)C1=C(O)C(C(C)CC)NC1=O (stereo not shown) [Compound 42] |  |  | 19.4 ± 2.50 | 2.24 ± 0.45 |  |  |  | 
28 | CCC(C)C1NC(=O)C(C(=O)NCc2ccccc2)=C1O (stereo not shown) [Compound 49] |  |  | 23.2 ± 2.86 | 2.47 ± 0.08 |  |  |  | 
29 | CCCC(C)C1NC(=O)C(C(C)=O)=C1[O-].[Na+] (stereo not shown) [m, Sodium salt of 3-acetyl-4-hydroxy-5-(Pentan-2-yl)-1H-pyrrol-2(5H)-one] | 8.5 ± 2.00 | 8.27 ± 1.72 |  |  |  |  |  | 
30 | CCC1NC(=O)C(C(C)=O)=C1O.[K] (stereo not shown) [f, Potassium salt of 3-acetyl-5-ethyl-4-hydroxy-1H-pyrrol-2(5H)-one] | 14.2 ± 2.00 | 3.72 ± 0.28 |  |  |  |  |  | 
31 | Iron salt of 3-acetyl-5-ethyl-4-hydroxy-1H-pyrrol-2(5H)-one [k] | 17.2 ± 0.95 | 1.72 ± 0.15 |  |  |  |  |  | 
32 | Manganese salt of 3-acetyl-5-ethyl-4-hydroxy-1H-pyrrol-2(5H)-one [i] | 14.3 ± 3.15 | 3.24 ± 0.33 |  |  |  |  |  | 
